# In patent publication US6716829B2, “Aldosterone antagonist and cyclooxygenase-2 inhibitor combination therapy to prevent or treat inflammation-related cardiovascular disorders” (Pharmacia Corporation, priority 2000, dated 2004):
# Several values for one entry are separate records, joined by “and”; a condition that tells them apart may be missing. Identical values can stand only once.
# Columns and labels:
# interstitial collagen = test: Assay C: image analysis of interstitial collagen (Picrosirius Red), collagen volume fraction; assay type: in vivo, Male Sprague-Dawley rats; conditions: for ICVF (%): interstitial collagen volume fraction, eplerenone dose 100 mg/kg/day
# Description: The procedure of Assay B was expanded upon in a further study. […] Myocardial tissue from animals in each treatment group was examined after 7, 14, or 30 days of treatment. […] Lesions were preceded by the expression and progressive upregulation of proinflammatory molecules. […] Prior to surgery the animals were individually weighed and placed in one of the following groups: […] Potassium chloride supplementation was added to the saline solution in order to prevent the potential hypokalemia associated with aldosterone excess. […] Louis, Mo.) was inserted subcutaneously at the nape of the neck. Aldosterone was administered at a dose of 0.75 µg/hour. […] Animals were sacrificed from each group (n=8-13) after 7, 14, or 30 days of treatment. The equatorial regions of the heart were routinely processed into paraffin with an automated tissue processor (Hypercenter XP, Shandon/Lipshaw Inc., Pittsburgh, Pa.) and embedded into fresh paraffin apical side down (Shandon Embedding Center, Shandon/Lipshaw Inc.). Five and 10 µm sections were cut from each block of tissue using a Leica RM2035 rotary microtome (Leica Inc., Houston, Tex.) and mounted on Superfrost/Plus microscope slides (Fisher Scientific, Pittsburgh, Pa.). Ten […]m sections were stained with the collagen specific stain, Picrosirius Red F3BA (Saturated Picric Acid (Sigma Chemical, St. […] Waterbury, Conn.) (6). Mounted tissues were hydrated with water. […] Slides were coverslipped with #1 cover glass using Permount Histological Mounting Media (Fisher Scientific). Two slides mounted with 5 µm sections were cut for each animal. One slide was processed for H&E staining and one for Periodic Acid Schiff (PAS) staining. The H&E and PAS were used for pathological scoring of the hearts. Picrosirius Red F3BA stained slides were used to quantify interstitial collagen with a Videometric 150 Image Analysis System (Oncor Inc., Gaitherburg, Md.). […] Garden City, N.Y.) attached to a Nikon Optiphot microscope (Nikon Inc.). A Toshiba 3 CCD Color Video Camera (Model#[…] Corp. Japan) relayed the images in RGB format from the microscope to a 386 computer with a […] video board. The […] video board/[…] software application (Oncor Inc.) converted RGB images to HIS (Hue, Intensity, Saturation) format for display and analysis on a Sony Trinitron Color Video Monitor (Model#PVM-1342Q, Sony Corp, Tokyo, Japan) at a magnification of 305×. […] The […] application then measured only pixels which fell into thresholding limits. The system was calibrated with a micrometer scale (EM Sciences, FT. Washington, Pa. 19034), which allowed data to be expressed in mm^2 or […]m^2.
# [1] = system: marker proteins (osteopontin, ED-1, CD-3, ICAM-1, VCAM-1); test: Assay C: immunohistochemistry of myocardial tissue (osteopontin, ED-1, CD-3, ICAM-1, VCAM-1); assay type: in vivo, Male Sprague-Dawley rats; conditions: aldosterone + salt treated rats; eplerenone 100 mg/kg/day
# Description: The procedure of Assay B was expanded upon in a further study. […] Myocardial tissue from animals in each treatment group was examined after 7, 14, or 30 days of treatment. […] Lesions were preceded by the expression and progressive upregulation of proinflammatory molecules.
# Potassium chloride supplementation was added to the saline solution in order to prevent the potential hypokalemia associated with aldosterone excess.
# At the time of the surgery, an Alzet 2002 osmotic minipump (Alza Corp., Palo Alto, Calif.) containing either vehicle (9% ethanol/87% propylene glycol/4% dH2O) or 1.0 mg/mL d-aldosterone (Sigma Chemical, St. Louis, Mo.) was inserted subcutaneously at the nape of the neck. Aldosterone was administered at a dose of 0.75 µg/hour. […] Animals were sacrificed from each group (n=8-13) after 7, 14, or 30 days of treatment.
# The equatorial regions of the heart were routinely processed into paraffin with an automated tissue processor (Hypercenter XP, Shandon/Lipshaw Inc., Pittsburgh, Pa.) and embedded into fresh paraffin apical side down (Shandon Embedding Center, Shandon/Lipshaw Inc.). Five and 10 µm sections were cut from each block of tissue using a Leica RM2035 rotary microtome (Leica Inc., Houston, Tex.) and mounted on Superfrost/Plus microscope slides (Fisher Scientific, Pittsburgh, Pa.). […]
# [2] = group mean, data used for Table 15 (14 days of treatment)
# [3] = group mean, data used for Table 16 (30 days of treatment)
# [4] = mean ± SEM after 7 days of treatment
# [5] = mean ± SEM after 14 days of treatment
# [6] = mean ± SEM after 30 days of treatment
SMILES,Collagen Volume Fraction (%) (interstitial collagen; [2]),Collagen Volume Fraction (%) (interstitial collagen; [3]),"Collagen Volume Fraction (%) (interstitial collagen; individual rats, data used for Table 15 (14 days of treatment), incl. rat marked * excluded from statistics, listed as Aldosterone + salt)","Collagen Volume Fraction (%) (interstitial collagen; individual rats, data used for Table 16 (30 days of treatment), incl. rat marked * excluded from statistics, listed as Aldosterone + salt)",ICVF (%) (interstitial collagen; [4]),ICVF (%) (interstitial collagen; [5]),ICVF (%) (interstitial collagen; [6]),Staining in myocardial tissue for marker proteins (immunohistochemistry) [1],"Collagen Volume Fraction (%) (interstitial collagen; individual rats, data used for Table 15 (14 days of treatment), incl. rat marked * excluded from statistics, listed as Eplerenone + aldosterone + salt)","Collagen Volume Fraction (%) (interstitial collagen; individual rats, data used for Table 16 (30 days of treatment), incl. rat marked * excluded from statistics, listed as Eplerenone + aldosterone + salt)"
C[C@]12CCC(=O)C=C1CC[C@@H]1[C@@H]2[C@@H](O)C[C@]2(C=O)[C@@H](C(=O)CO)CC[C@@H]12 [Aldosterone],5.1,7.9,4.4% and 5.4% and 3.2% (2×) and 5.9% (2×) and 4.6% (2×) and 3.9% and 4.8% and 3.4% and 6.4% and 9.0%,6.6% and 8.8% and 7.2% (2×) and 7.1% and 9.3% and 6.8% and 4.0% and 14.5%,5.6 ± 0.6,5.1 ±0.5,7.9 ± 1.0,Significant expression of osteopontin,,
COC(=O)[C@@H]1CC2=CC(=O)CC[C@]2(C)[C@@]23O[C@@H]2C[C@@]2(C)[C@@H](CC[C@@]24CCC(=O)O4)[C@H]13 [Eplerenone],4.5,6.2,,,5.4 ± 0.6,4.5 ± 0.3,6.2 ± 0.5,markedly blunted,4.1% and 6.2% and 3.9% and 3.7% (2×) and 4.2% and 3.5% and 3.3% and 5.2% and 5.6% and 6.0%,3.4% and 5.0% and 6.5% and 7.9% and 7.1% and 6.3% and 6.1% and 5.4% and 7.8% and 4.4%
